Test results: patent US7473790B2 (Pfizer Inc., priority 2003, dated 2009)

Target: T1, HCV polymerase (Hepatitis C virus genotype 1b, UniProt P26663)
T1 construct: 2.5 pmoles (0.15 μg) HCV polymerase protein in a final volume of 75 μL
Assay: HCV polymerase primer/template-directed transcription assay (32P-GTP incorporation, filter binding)
Type: biochemical
Settings: recombinant HCV polymerase; 30 minutes at 30° C.; concentration giving 50% inhibition of polymerase-directed transcription; read-out: IC50
Procedure: The compounds described herein were tested for activity with HCV polymerase. Recombinant HCV polymerase was tested for its ability to perform primer/template-directed transcription in assays that contained 30 mM tris-HCl pH 7.2, 10 mM MgCl2, 20 mM NaCl, 1 mM Dithiothreitol (DTT), 0.05% Tween-20, 1% glycerol, 5 pmoles biotin-dG12 (primer), 0.5 pmoles poly(rC)300 (template), 1 μM GTP, 0.1-0.3 uCi α-^32P-GTP, and 2.5 pmoles (0.15 μg) HCV polymerase protein in a final volume of 75 μL. Reactions were initiated by addition of enzyme and incubated 30 minutes at 30° C. Reactions were stopped by addition of 33 mM EDTA, and polynucleotide products were collected by filtration through Diethylaminoethyl (DE) Filtermat papers (Wallac). Unincorporated triphosphate was removed by washing the filters with 5% dibasic sodium phosphate. The filters were counted in a Packard Tri-Lux Microbeta scintillation counter (Packard Bioscience, Meriden, Conn.). Compounds to be tested were added at various concentrations, e.g., 1 μm to 50 μm, from stocks in 10% DMSO-water (final DMSO is 1% in reaction).
IC50 values were estimated from the primary cpm data (collected in triplicate) using the formula: cpm (I)=cpm(no inhibitor)(1−([I]/([I]+IC50))). An IC50 value represents the concentration (in μM) of a compound that provides 50% inhibition of polymerase-directed transcription in the above assay. A percent inhibition value is expressed for a compound where it was impractical to calculate an IC50 value with available data. If the IC50 estimated by the above equation was less than 200 nM, it was recalculated using the following equation, which takes into account the enzyme concentration (30 nM) in the assay: cpm(I)=cpm(no inhibitor)(1−((((I+IC50+30e−9)−sqrt(((I+IC50+30e−9)^2)−4×30e−9×I)))/((2)(30e−9))). Curve fitting was performed using the program KaleidaGraph (Synergy Software, Reading, Pa.).

T1 sequence (P26663 2420-3010): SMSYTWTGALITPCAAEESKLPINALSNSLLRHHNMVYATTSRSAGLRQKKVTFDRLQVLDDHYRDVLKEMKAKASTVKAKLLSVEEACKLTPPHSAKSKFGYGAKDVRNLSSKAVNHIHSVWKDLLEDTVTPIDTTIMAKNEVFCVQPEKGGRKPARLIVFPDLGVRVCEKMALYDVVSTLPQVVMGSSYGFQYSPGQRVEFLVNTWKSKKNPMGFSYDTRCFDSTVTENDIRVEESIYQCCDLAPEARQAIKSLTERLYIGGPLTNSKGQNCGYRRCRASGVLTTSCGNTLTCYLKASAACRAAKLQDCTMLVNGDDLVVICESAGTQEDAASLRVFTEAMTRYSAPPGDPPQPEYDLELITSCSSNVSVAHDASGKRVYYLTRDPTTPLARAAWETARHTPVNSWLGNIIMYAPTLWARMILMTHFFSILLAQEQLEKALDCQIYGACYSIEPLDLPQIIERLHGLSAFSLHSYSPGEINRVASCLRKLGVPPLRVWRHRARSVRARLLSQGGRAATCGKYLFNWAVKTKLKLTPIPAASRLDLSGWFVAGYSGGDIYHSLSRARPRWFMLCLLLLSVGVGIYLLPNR

Row | Compound | IC50 [nM]
1 | CC(C)Oc1ccc(CCC2(C3CCCC3)CC(=O)CC(=O)O2)cc1F (single isomer, unassigned) [J(2), 6-cyclopentyl-6-[2-(3-fluoro-4-isopropoxyphenyl)ethyl]dihydro-2H-pyran-2,4(3H)-dione] | 3900
2 | Cc1cc(C)n2nc(CC3=C(O)CC(CCc4ccc(OC(C)C)c(F)c4)(C4CCCC4)OC3=O)nc2n1 (single isomer, unassigned) [J(3), 6-cyclopentyl-3-[(5,7-dimethyl[1,2,4]triazolo[1,5-a]pyrimidin-2-yl)methyl]-6-[2-(3-fluoro-4-isopropoxyphenyl)ethyl]-4-hydroxy-5,6-dihydro-2H-pyran-2-one] | 5
3 | Cc1cc(C)n2nc(CC3=C(O)CC(CCc4ccc(OC(C)C)c(F)c4)(C4CCCC4)OC3=O)nc2n1 (single isomer, unassigned) [J(4), 6-cyclopentyl-3-[(5,7-dimethyl[1,2,4]triazolo[1,5-a]pyrimidin-2-yl)methyl]-6-[2-(3-fluoro-4-isopropoxyphenyl)ethyl]-4-hydroxy-5,6-dihydro-2H-pyran-2-one] | 19
4 | CCc1cccc(CCC2(C3CCCC3)CC(=O)CC(=O)O2)c1 (single isomer, unassigned) [J(5), 6-Cyclopentyl-6-[2-(3-ethyl-phenyl)-ethyl]-dihydro-pyran-2,4-dione] | 1900
5 | CCc1cccc(CCC2(C3CCCC3)CC(=O)CC(=O)O2)c1 (single isomer, unassigned) [J(6), 6-Cyclopentyl-6-[2-(3-ethyl-phenyl)-ethyl]-dihydro-pyran-2,4-dione] | 1200
6 | CCc1cccc(CCC2(C3CCCC3)CC(O)=C(Cc3nc4nc(C)cc(C)n4n3)C(=O)O2)c1 (single isomer, unassigned) [J(7), 6-Cyclopentyl-3-(5,7-dimethyl-[1,2,4]triazolo[1,5-a]pyrimidin-2-ylmethyl)-6-[2-(3-ethyl-phenyl)-ethyl]-4-hydroxy-5,6-dihydro-pyran-2-one] | 10
7 | CCc1cccc(CCC2(C3CCCC3)CC(O)=C(Cc3nc4nc(C)cc(C)n4n3)C(=O)O2)c1 (single isomer, unassigned) [J(8), 6-Cyclopentyl-3-(5,7-dimethyl-[1,2,4]triazolo[1,5-a]pyrimidin-2-ylmethyl)-6-[2-(3-ethyl-phenyl)-ethyl]-4-hydroxy-5,6-dihydro-pyran-2-one] | 14
8 | Cc1cnc2nc(CC3C(=O)CC(CCc4ccc(C(C)(C)C#N)c(F)c4)(C4CCCC4)OC3=O)nn2c1 (single isomer, unassigned; (+)) [A(109), (+)-2-(4-{2-[2-Cyclopentyl-5-(6-methyl-[1,2,4]triazolo[1,5-a]pyrimidin-2-ylmethyl)-4,6-dioxo-tetrahydro-pyran-2-yl]-ethyl}-2-fluoro-phenyl)-2-methyl-propionitrile] | 4
9 | CC(C)(C#N)c1ccc(CCC2(C3CCCC3)CC(O)=C(Cc3nc4ncc(Cl)cn4n3)C(=O)O2)cc1F (single isomer, unassigned; (+)) [A(248), (+)-2-(4-{2-[5-(6-Chloro-[1,2,4]triazolo[1,5-a]pyrimidin-2-ylmethyl)-2-cyclopentyl-4,6-dioxo-tetrahydro-pyran-2-yl]-ethyl}-2-fluoro-phenyl)-2-methyl-propionitrile] | 16
10 | CC(C)(C#N)c1c(F)cc(CCC2(C3CCCC3)CC(O)=C(Cc3nc4ncc(Cl)cn4n3)C(=O)O2)cc1F (single isomer, unassigned; (+)) [A(259), (+)-2-(4-{2-[5-(6-Chloro-[1,2,4]triazolo[1,5-a]pyrimidin-2-ylmethyl)-2-cyclopentyl-4-hydroxy-6-oxo-3,6-dihydro-2H-pyran-2-yl]-ethyl}-2,6-difluoro-phenyl)-2-methyl-propionitrile] | 6
11 | CCC(C#N)(CC)c1c(F)cc(CCC2(C3CCCC3)CC(O)=C(Cc3nc4ncc(C)cn4n3)C(=O)O2)cc1F (single isomer, unassigned; (+)) [A(263), (+)-2-(4-{2-[2-Cyclopentyl-4-hydroxy-5-(6-methyl-[1,2,4]triazolo[1,5-a]pyrimidin-2-ylmethyl)-6-oxo-3,6-dihydro-2H-pyran-2-yl]-ethyl}-2,6-difluoro-phenyl)-2-ethyl-butyronitrile] | 7
12 | CCC(C#N)(CC)c1ccc(CCC2(C3CCCC3)CC(O)=C(Cc3nc4ncc(Cl)cn4n3)C(=O)O2)cc1F (single isomer, unassigned; (+)) [A(266), (+)-2-(4-{2-[5-(6-Chloro-[1,2,4]triazolo[1,5-a]pyrimidin-2-ylmethyl)-2-cyclopentyl-4-hydroxy-6-oxo-3,6-dihydro-2H-pyran-2-yl]-ethyl}-2-fluoro-phenyl)-2-ethyl-butyronitrile] | 19
13 | Cc1cnc2nc(CC3C(=O)CC(CCc4ccc(C(C)(C)C#N)c(F)c4)(C4CCCC4)OC3=O)nn2c1 (single isomer, unassigned; (-)) [A(110), (−)-2-(4-{2-[2-Cyclopentyl-5-(6-methyl-[1,2,4]triazolo[1,5-a]pyrimidin-2-ylmethyl)-4,6-dioxo-tetrahydro-pyran-2-yl]-ethyl}-2-fluoro-phenyl)-2-methyl-propionitrile] | 1
14 | CCc1cc(CCC2(C3CCCC3)CC(O)=C(Cc3nc4nc(C)cc(C)n4n3)C(=O)O2)c(OC)cc1O (single isomer, unassigned; (-)) [A(155), (−)-6-Cyclopentyl-3-(5,7-dimethyl-[1,2,4]triazolo[1,5-a]pyrimidin-2-ylmethyl)-6-[2-(5-ethyl-4-hydroxy-2-methoxy-phenyl)-ethyl]-4-hydroxy-5,6-dihydro-pyran-2-one] | 3
15 | CC(C)(C#N)c1ccc(CCC2(C3CCCC3)CC(O)=C(Cc3nc4ncc(Cl)cn4n3)C(=O)O2)cc1F (single isomer, unassigned; (-)) [A(249), (−)-2-(4-{2-[5-(6-Chloro-[1,2,4]triazolo[1,5-a]pyrimidin-2-ylmethyl)-2-cyclopentyl-4,6-dioxo-tetrahydro-pyran-2-yl]-ethyl}-2-fluoro-phenyl)-2-methyl-propionitrile] | 19
16 | Cc1cnc2nc(CC3=C(O)CC(CCc4cc(F)c(C(C)(C)C#N)c(F)c4)(C4CCCC4)OC3=O)nn2c1 (single isomer, unassigned; (-)) [A(258), (−)-2-(4-{2-[2-Cyclopentyl-4-hydroxy-5-(6-methyl-[1,2,4]triazolo[1,5-a]pyrimidin-2-ylmethyl)-6-oxo-3,6-dihydro-2H-pyran-2-yl]-ethyl}-2,6-difluoro-phenyl)-2-methyl-propionitrile] | 2
17 | CC(C)(C#N)c1c(F)cc(CCC2(C3CCCC3)CC(O)=C(Cc3nc4ncc(Cl)cn4n3)C(=O)O2)cc1F (single isomer, unassigned; (-)) [A(260), (−)-2-(4-{2-[5-(6-Chloro-[1,2,4]triazolo[1,5-a]pyrimidin-2-ylmethyl)-2-cyclopentyl-4-hydroxy-6-oxo-3,6-dihydro-2H-pyran-2-yl]-ethyl}-2,6-difluoro-phenyl)-2-methyl-propionitrile] | 7
18 | CCC(C#N)(CC)c1c(F)cc(CCC2(C3CCCC3)CC(O)=C(Cc3nc4ncc(C)cn4n3)C(=O)O2)cc1F (single isomer, unassigned; (-)) [A(264), (−)-2-(4-{2-[2-Cyclopentyl-4-hydroxy-5-(6-methyl-[1,2,4]triazolo[1,5-a]pyrimidin-2-ylmethyl)-6-oxo-3,6-dihydro-2H-pyran-2-yl]-ethyl}-2,6-difluoro-phenyl)-2-ethyl-butyronitrile] | 4
19 | CCC(C#N)(CC)c1ccc(CCC2(C3CCCC3)CC(O)=C(Cc3nc4ncc(Cl)cn4n3)C(=O)O2)cc1F (single isomer, unassigned; (-)) [A(267), (−)-2-(4-{2-[5-(6-Chloro-[1,2,4]triazolo[1,5-a]pyrimidin-2-ylmethyl)-2-cyclopentyl-4-hydroxy-6-oxo-3,6-dihydro-2H-pyran-2-yl]-ethyl}-2-fluoro-phenyl)-2-ethyl-butyronitrile] | 4
20 | CCc1ccc(O)c(CCC2(C3CCCC3)CC(O)=C(Cc3nc4nc(C)cc(C)n4n3)C(=O)O2)c1 (single isomer, unassigned; enantiomer 1) [A(167), Enantiomer 1 of 6-Cyclopentyl-3-(5,7-dimethyl-[1,2,4]triazolo[1,5-a]pyrimidin-2-ylmethyl)-6-[2-(5-ethyl-2-hydroxy-phenyl)-ethyl]-4-hydroxy-5,6-dihydro-pyran-2-one] | 4
21 | CCc1ccc(O)c(CCC2(C3CCCC3)CC(O)=C(Cc3nc4ncc(Cl)cn4n3)C(=O)O2)c1 (single isomer, unassigned; enantiomer 1) [A(171), Enantiomer 1 of 3-(6-Chloro-[1,2,4]triazolo[1,5-a]pyrimidin-2-ylmethyl)-6-cyclopentyl-6-[2-(5-ethyl-2-hydroxy-phenyl)-ethyl]-4-hydroxy-5,6-dihydro-pyran-2-one] | 4
